Consider 20 compounds from US11254644B2, “Inhibitors of alpha-amino-beta-carboxymuconic acid semialdehyde decarboxylase” (TES Pharma S.r.l., priority 2014, dated 2022).

In one test the target is hACMSD (ACMSD1) (Homo sapiens (Human), UniProt Q8TDX5). As to the kind of experiment: Determination of ACMSD1 inhibition, spectrophotometrical in vitro assay. It is filed as biochemical. The following applies: HAA concentration of 10 μM. On the procedure: The activity of compounds as inhibitors of ACMSD1 is determined in a spectrophotometrical in vitro assay. The pre-assay mixture is incubated and a compound of Formula (I), Formula (Ia), Formula (Ib), Formula (II), or Formula (III), or a pharmaceutically acceptable salt thereof, and ACMSD1 solution is then added. The effect of ACMS concentration on the enzyme activity is investigated by varying 3-hydroxyanthranilic acid (3OH-HA) concentration in the pre-assay mixture. Kinetic parameters are calculated from the initial velocity data using a Lineweaver-Burk plot.
Sequence of hACMSD (ACMSD1) (Q8TDX5 whole entry): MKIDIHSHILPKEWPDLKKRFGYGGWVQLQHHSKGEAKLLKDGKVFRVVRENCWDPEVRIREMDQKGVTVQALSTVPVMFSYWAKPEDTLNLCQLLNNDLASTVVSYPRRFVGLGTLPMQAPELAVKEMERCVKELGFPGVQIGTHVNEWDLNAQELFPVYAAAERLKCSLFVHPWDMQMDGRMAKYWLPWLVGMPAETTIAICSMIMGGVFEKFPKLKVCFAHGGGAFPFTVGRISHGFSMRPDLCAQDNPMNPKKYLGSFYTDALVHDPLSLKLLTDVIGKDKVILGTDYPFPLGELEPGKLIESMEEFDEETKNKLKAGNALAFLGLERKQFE
The activity of compounds 1-19 and 21-23 as inhibitors of ACMSD1 was determined by measuring the conversion of 3OH-Anthranilic Acid into product (i.e., ACMS) in a spectrophotometrical in vitro assay.
The pre-assay mixture consisting of 3-hydroxyanthranilic acid (3OH-HA), 3-hydroxyanthranilic acid, 3,4-diOxygenase (HAO), and a dialyzed crude extract of E. coli BL21 (DE3) cells expressing the recombinant enzyme, was incubated at 25° C. with monitoring of the increase in absorbance at 360 nm due to the formation of ACMS from 3OH-HA. After the reaction was completed within ˜2 mins, an aliquot of ACMSD1 solution (prepared and purified from Pichia Pastoris overexpressing the recombinant enzyme) was added, and the decrease in absorbance at 360 nm was followed at 15 second intervals. The effect of ACMS concentration on the enzyme activity was investigated by varying 3OH-HA concentration from 2 to 20 μM. Kinetic parameters were calculated from the initial velocity data by using the Lineweaver-Burk plot.
The rate of the decrease in absorbance caused by ACMSD1 was calculated by subtracting that of the control reaction mixture without ACMSD from that described above. One unit of ACMSD activity was indicated as the amount of enzyme that converts 1 mmol of ACMS per minute at 25° C. The absence or a reduction of ACMSD1 activity (e.g., by using ACMSD inhibitors) results in a slow ACMS-spontaneous degradation (i.e., cyclization to form quinolic acid).
The enzymatic activity was determined at a HAA concentration of 10 μM in the presence of the compounds in Table 1 below. The compounds were tested at the concentration of about 5 μM and 10 μM and the IC50 was calculated for compounds showing inhibitory activity higher than 50%.
As to `CCOC(=O)c1cccc(CSc2nc(-c3ccc(C)cc3)c(C#N)c(=O)[nH]2)c1` [Compound 9], the IC50 was determined as 960 nM.
The same measure, in the same setting: for `N#Cc1c(-c2ccco2)nc(SCc2cccc(C(=O)O)c2)[nH]c1=O` [Compound 2] the value was 66 nM; for `N#Cc1c(-c2cccs2)nc(SCc2cccc(-c3noc(=O)[nH]3)c2)[nH]c1=O` [Compound 19], 25 nM; for `N#Cc1c(-c2nccs2)nc(SCc2cccc(C(=O)O)c2)[nH]c1=O` [Compound 5], 49 nM.
The compound `N#Cc1c(-c2ccccc2)nc(SCc2ccc(C(=O)O)cc2)[nH]c1=O` [Compound 16] showed an IC50 of 110 nM.
Still for that read-out and setting: for `N#Cc1c(C2CCCCC2)nc(SCc2cccc(C(=O)O)c2)[nH]c1=O` [Compound 6] the value was 77 nM; for `N#Cc1c(-c2cccs2)nc(SCc2cccc(C(=O)O)c2)[nH]c1=O` [Compound 4], 12 nM; for `O=C(O)c1cccc(CSc2nc(-c3cccs3)c(Br)c(=O)[nH]2)c1` [Compound 12], 88 nM.
The same measure, in the same setting: for `O=C(O)c1cccc(CSc2nc(-c3ccccc3)c(Br)c(=O)[nH]2)c1` [Compound 11] the value was 71 nM; for `CC(Sc1nc(-c2ccccc2)c(C#N)c(=O)[nH]1)C(=O)O` (centres unmarked) [Compound 21], 1990 nM; for `N#Cc1c(-c2cccs2)nc(SCC(=O)Nc2ccccc2O)[nH]c1=O` [Compound 23], 4900 nM.
Still for that read-out and setting: for `N#Cc1c(-c2cccs2)nc(SCc2cccc(CC(=O)O)c2)[nH]c1=O` [Compound 18] the value was 10 nM.
Take `O=C(O)c1cccc(CSc2nc(-c3ccccc3)cc(=O)[nH]2)c1` [Compound 14]: the IC50 was found to be 740 nM.
Regarding `N#Cc1c(-c2ccsc2)nc(SCc2cccc(C(=O)O)c2)[nH]c1=O` [Compound 3], half-maximal inhibition (IC50) required 31 nM.
On the same count and under the same terms, for `N#Cc1c(Cl)nc(SCc2cccc(C(=O)O)c2)nc1-c1ccccc1` [Compound 22] the value was 1100 nM.
The compound `Cc1nc(SCc2cccc(C(=O)O)c2)[nH]c(=O)c1C#N` [Compound 10] came in with an IC50 of 1700 nM.
Consider `O=C(O)c1cccc(CSc2nc(-c3ccccc3)c(Cl)c(=O)[nH]2)c1` [Compound 13], for which the IC50 was determined as 136 nM.
On the same count and under the same terms, for `O=C(O)c1cccc(CSc2nc(-c3cccs3)cc(=O)[nH]2)c1` [Compound 15] the value was 760 nM; for `N#Cc1c(-c2ccc(Cl)cc2)nc(SCc2ccc(C(=O)O)cc2)[nH]c1=O` [Compound 8], 82 nM; for `N#Cc1c(-c2ccncc2)nc(SCc2cccc(C(=O)O)c2)[nH]c1=O` [Compound 7], 82 nM.

Another test has as its system human primary hepatocytes. As to the kind of experiment: NAD+ content in human primary hepatocytes (LCMS/MS). The following applies: 0.5 μM and 5 μM; compound replaced every 24 hrs. It is filed as cell-based. On the procedure:
Primary hepatocytes are treated with different concentrations of a compound of Formula (I), Formula (Ia), Formula (Ib), Formula (II), or Formula (III), or a pharmaceutically acceptable salt thereof, or MEHP (control) after seeding. The compound is replaced every 24 hours, and then cells are directly harvested and lysed to detect NAD^+ content through LC MS/MS (liquid chromatography mass spectrometry/mass spectroscopy).
The NAD^+ concentration or content was determined in human primary hepatocytes treated with Compound 4. Vehicle (NT) was used as a control.
At least three experiments were run treating primary hepatocytes with different concentrations of Compound 4 (0.5 μM and 5 μM) after 48 hrs from seeding. Compound 4 was replaced every 24 hrs, and then cells were directly harvested and lysed with ACN/H2O (ratio 5:1). LCMS/MS was used to detect and measure NAD^+ concentration/content. […] (FIG. 1)
The NAD^+ concentration or content was determined in human primary hepatocytes treated with Compound 1 and MEHP, a known ACMSD inhibitor. MEHP was used as a control.
At least three experiments were run treating primary hepatocytes with different concentrations of Compound 1 (0.5 μM, 5 μM, and 50 μM) after 48 hrs from seeding. Compound 1 was replaced every 24 hrs, and then cells were directly harvested and lysed with ACN/H2O (ratio 5:1). […]
For the compound `N#Cc1c(-c2cccs2)nc(SCc2cccc(C(=O)O)c2)[nH]c1=O` [Compound 4], the “ACMSD-1 inhibition, NAD+ content screening (FIG. 1)” value was “inhibits ACMSD-1 enzyme”.

The next test relates to Caspase 3/7 activity in MDCK cells. As to the kind of experiment: Modulation of cisplatin-induced caspase 3/7 activity in MDCK cells. The following applies: 100 μM, in combination with cisplatin; p<0.001. It is filed as cell-based. The method, then:
MDCK cells are cultured in base medium to a final concentration of 10%. Cells are plated into 96 wells and 24 hours after cell plating the medium is changed with fresh medium supplemented with 1% FBS. Cisplatin is then used to induce cell injury. Different concentrations of Formula (I), Formula (Ia), Formula (Ib), Formula (II), or Formula (III), or a pharmaceutically acceptable salt thereof (in DMSO) are added in combination with cisplatin or prior to adding cisplatin. Caspase 3/7 activity (Promega) is determined according to standard procedures using a luminescent signal readout on a plate reader. Each experiment/condition is performed in triplicate. Caspase activity is analyzed as percentage effect normalized to the cisplatin alone and vehicle treated cells.
MDCK cells (MDCK (NBL-2) ATCC® CCL-34™) were cultured in base medium ATCC-formulated Eagle's Minimum Essential Medium, Catalog No. 30-2003 with fetal bovine serum (FBS) to a final concentration of 10%. […]
Caspase 3/7 activity (Promega) was determined according to standard procedures using a luminescent signal readout on a Victor V plate reader (PerkinElmer). […]
Caspase activity was analyzed as percentage effect normalized to the cisplatin alone (100%) and vehicle treated cells as 0% of caspase activity. Data were analyzed by GraphPad Software. […]
As to `N#Cc1c(-c2cccs2)nc(SCc2cccc(CC(=O)O)c2)[nH]c1=O` [Compound 18], the “caspase activity compared to cisplatin alone” value was “decreased caspase activity in significant manner”.

Staying with this test, now noted: about 30 μM to about 125 μM, one hour prior to cisplatin; p<0.001.
Turning to `N#Cc1c(-c2cccs2)nc(SCc2cccc(CC(=O)O)c2)[nH]c1=O` [Compound 18], the “caspase activity compared to cisplatin alone” value is “decreased caspase activity in significant manner”.
